# Residues, ends and D or L forms follow the SMILES beside them. *: point of attachment. FITC = O=C1OC2(c3ccc(O)cc3Oc3cc(O)ccc32)c2ccc(NC(=S)*)cc21
# Key:
# AIDA1 PTB domain = test: Binding of APP peptides to the AIDA1 PTB domain; parameters: species or system human
# Description: A gene fragment encoding the PTB domain (aa. 1043–1195) of human AIDA1b was PCR amplified with NdeI and EcoRI restriction sites and was subsequently inserted into pET28a (Novagen). The expressed protein contained an amino terminal 6xHis tag and intervening thrombin site. Other PTB domain fragments that lacked either the N-terminal 6xHis tag or the entire affinity tag along with 16 additional unstructured residues were also as […] as the fragment chosen for this study. To align the PTB domain described in this study with numerous AIDA1 isoforms, S1 in the PTB domain structure corresponds to S1045 in AIDA1b, the longest isoform. A one-liter fermentation in a minimal medium containing 1 g of ^15NH4Cl and 4 g of ^13C-glucose was sufficient to produce 5–10 mg of purified protein. Purification was achieved by Nickel-NTA affinity chromatography (Qiagen) and gel filtration chromatography on a S-100 HR 16/60 size exclusion column (GE Biosciences). Final buffer conditions were 20 mM Na-phosphate, pH 7.8, 0.15 M NaCl, 0.05% (w/v) NaN3. […] A 6xHis tagged PTB domain variant containing all five substitutions (PTB5M) was produced by DNA2.0 (Menlo Park, CA) by direct gene synthesis in the expression vector, pJExpress401 (T5 promoter plus kanamycin resistance). A 6xHis-tagged, APP-peptide ([…]) fused to the amino terminus of the AIDA1 PTB5M mutant with an intervening thrombin site was also synthesized by DNA2.0 in pJExpress401.
# (§1) Fluorescein isothiocyanate (FITC) labeled peptides spanning portions of APP were produced and purified by CanPeptide (Montreal, QC) for fluorescence anisotropy based binding studies at 25°C using an Agilent Eclipse spectrophotometer equipped with a manual polarizer accessory. Buffer conditions were similar to those used for NMR spectroscopy. […] Anisotropy was calculated from the relationship (Iparallel–GIperp)/(Iparallel[…]) and normalized with the blank experiment. The equilibrium dissociation constant (KD) was calculated by direct fitting the titration curves with a standard two-state relationship using proFit 6.2 (Quantsoft).
# [1] = target: T1, AIDA1 PTB domain, Y70A mutant (PTBY70A) (Homo sapiens, UniProt Q7Z6G8, Y1111A); test: Fluorescence anisotropy binding of FITC-labeled APP peptides to PTBY70A; conditions: FITC-labeled peptide, 25°C, buffer similar to NMR (20 mM Na-phosphate, pH 7.8, 0.15 M NaCl), two-state fit, n = 4 (APP-32), n = 2 (APP-17)
# T1 construct: A gene fragment encoding the PTB domain (aa. 1043–1195) of human AIDA1b; 6xHis tag with thrombin site (N); made in house; host or cells: pET28a vector
# T1 sequence (Q7Z6G8 1040-1192 Y1111A): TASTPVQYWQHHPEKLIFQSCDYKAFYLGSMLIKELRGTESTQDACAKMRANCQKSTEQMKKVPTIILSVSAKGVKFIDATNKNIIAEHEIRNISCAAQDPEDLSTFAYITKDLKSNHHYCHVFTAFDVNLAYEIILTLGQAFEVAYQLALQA
# Description: (§2) A gene fragment encoding the PTB domain (aa. 1043–1195) of human AIDA1b was PCR amplified with NdeI and EcoRI restriction sites and was subsequently inserted into pET28a (Novagen). The expressed protein contained an amino terminal 6xHis tag and intervening thrombin site. Other PTB domain fragments that lacked either the N-terminal 6xHis tag or the entire affinity tag along with 16 additional unstructured residues were also as […] as the fragment chosen for this study. To align the PTB domain described in this study with numerous AIDA1 isoforms, S1 in the PTB domain structure corresponds to S1045 in AIDA1b, the longest isoform. A one-liter fermentation in a minimal medium containing 1 g of ^15NH4Cl and 4 g of ^13C-glucose was sufficient to produce 5–10 mg of purified protein. […]
# as §1, with “accessory.” for “accessory. Buffer conditions were similar to those used for NMR spectroscopy.”
# [2] = target: T2, AIDA1 PTB domain, PTB5M mutant (Homo sapiens, UniProt Q7Z6G8, F1057A/F1065A/Y1047A/Y1111A/Y1172A); test: Fluorescence anisotropy binding of FITC-labeled APP peptides to PTB5M; conditions: FITC-labeled peptide, 25°C, buffer similar to NMR (20 mM Na-phosphate, pH 7.8, 0.15 M NaCl), two-state fit, n = 4 (APP-32), n = 2 (APP-17), n = 1 (APP-17{pY})
# T2 construct: A gene fragment encoding the PTB domain (aa. 1043–1195) of human AIDA1b; 6xHis; made in house; host or cells: gene synthesised by DNA2.0 in pJExpress401
# T2 sequence (Q7Z6G8 1043-1195 Y1047A/F1057A/F1065A/Y1111A/Y1172A): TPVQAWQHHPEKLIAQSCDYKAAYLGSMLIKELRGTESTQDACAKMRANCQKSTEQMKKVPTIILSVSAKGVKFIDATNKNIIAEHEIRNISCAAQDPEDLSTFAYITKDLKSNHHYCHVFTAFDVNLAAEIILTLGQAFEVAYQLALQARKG
# Description: as §2
# as §1, with “accessory.” for “accessory. Buffer conditions were similar to those used for NMR spectroscopy.”
# Fe65 PTB2 domain = conditions: Discussion; read-out: dissociation constant, Fe65 (given jointly for X11/Fe65); cited from earlier work
# Description: One threonine (T668) in APP located in this extended region is susceptible to phosphorylation and acts as a switch that repartitions the cis and trans states of the adjacent proline (P669) that, in turn, affects the ability of Fe65 to engage its ligand. […] This difference in affinity may be advantageous for AIDA1 to participate in signaling contexts beyond APP. From a peptide array study, we determined that the consensus sequence is less stringent NxxY versus NPxY for others in the same Dab-like class of PTB domains. Thus, at the neuronal synapse, AIDA1 could serve as a versatile collator and ...
# X11 PTB domain = conditions: Discussion; read-out: dissociation constant, X11 (given jointly for X11/Fe65); cited from earlier work
# Description: This difference in affinity may be advantageous for AIDA1 to participate in signaling contexts beyond APP. From a peptide array study, we determined that the consensus sequence is less stringent NxxY versus NPxY for others in the same Dab-like class of PTB domains. Thus, at the neuronal synapse, AIDA1 could serve as a versatile collator and ...
molecule,measurement,setting,value
CSCC[C@H](NC(=O)[C@H](CCC(N)=O)NC(=O)[C@H](CCC(=O)O)NC(=O)[C@H](Cc1ccccc1)NC(=O)[C@H](Cc1ccccc1)NC(=O)[C@H](CCCCN)NC(=O)[C@H](Cc1ccc(O)cc1)NC(=O)[C@@H](NC(=O)[C@@H]1CCCN1C(=O)[C@H](CC(N)=O)NC(=O)[C@H](CCC(=O)O)NC(=O)[C@H](Cc1ccc(O)cc1)NC(=O)CNC(=O)[C@H](CC(N)=O)NC(=O)[C@H](CCC(N)=O)NC(=O)CNC(=O)CNC(=S)Nc1ccc2c(c1)C(=O)OC21c2ccc(O)cc2Oc2cc(O)ccc21)[C@@H](C)O)C(=O)N[C@@H](CCC(N)=O)C(=O)N[C@@H](CC(N)=O)C(=O)O [APP-17] ({FITC}-GGQNGYENPTYKFFEQMQN-OH; C-terminus assumed),"binding affinity to the AIDA1 PTB domain, long versus short APP peptide","AIDA1 PTB domain; fluorescence anisotropy titration, in words",no differences in binding affinity
CSCC[C@H](NC(=O)[C@H](CCC(N)=O)NC(=O)[C@H](CCC(=O)O)NC(=O)[C@H](Cc1ccccc1)NC(=O)[C@H](Cc1ccccc1)NC(=O)[C@H](CCCCN)NC(=O)[C@H](Cc1ccc(O)cc1)NC(=O)[C@@H](NC(=O)[C@@H]1CCCN1C(=O)[C@H](CC(N)=O)NC(=O)[C@H](CCC(=O)O)NC(=O)[C@H](Cc1ccc(O)cc1)NC(=O)CNC(=O)[C@H](CC(N)=O)NC(=O)[C@H](CCC(N)=O)NC(=O)[C@H](CCC(N)=O)NC(=O)[C@H](CCSC)NC(=O)[C@H](CCCCN)NC(=O)[C@H](CO)NC(=O)[C@H](CC(C)C)NC(=O)[C@H](Cc1c[nH]cn1)NC(=O)[C@H](CCCNC(=N)N)NC(=O)[C@H](CCC(=O)O)NC(=O)[C@H](CCC(=O)O)NC(=O)[C@@H]1CCCN1C(=O)[C@@H](NC(=O)[C@@H](NC(=O)[C@H](C)NC(=O)[C@H](C)NC(=O)[C@H](CC(=O)O)NC(=O)CNC(=O)CN)C(C)C)[C@@H](C)O)[C@@H](C)O)C(=O)N[C@@H](CCC(N)=O)C(=O)N[C@@H](CC(N)=O)C(=O)O [APP-32] (H-GGDAAVTPEERHLSKMQQNGYENPTYKFFEQMQN-OH),Kd,[1],13.3 ± 1.5 µM
same,Kd,[2],14.8 ± 1 µM
amyloid protein precursor (APP): amyloid protein precursor (APP),Kd,Fe65 PTB2 domain,< 1 µM
same,Kd,X11 PTB domain,< 1 µM
same,Kd,AIDA1 PTB domain; approximate value of text/abstract,~10 µM
same,affinity of the AIDA1 PTB domain (in words),AIDA1 PTB domain; relative to similar APP binding proteins such as X11/Fe65,moderate

# — paper PMC3683042, “Solution Structure and Peptide Binding of the PTB Domain from the AIDA1 Postsynaptic Signaling Scaffolding Protein” (PLoS ONE, 2013)
